The source of these data is US7445765B2, “Radiopharmaceutical for diagnostic imaging containing a technetium-99m nitride heterocomplex” (Nihon Medi-Physics Co., Ltd., priority 2000, dated 2008).

This data set in a line: Biodistribution of the 99mTc(N) heterocomplexes in rats (organ uptake, heart accumulation, heart/lung and heart/liver ratios). The class given is in vivo, female Sprague-Dawley rats. The note with it: rats. The method in brief:
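Female Sprague-Dawley rats (200–250 g, n=3), ketamine/xylazine anaesthesia, got 300–370 kBq of each purified heterocomplex in pH 7.4 phosphate buffer (10% ethanol) via the jugular vein. They were killed at several post-injection times. Heart blood and washed, weighed organs were gamma-counted, taking whole blood as 6.5% of body weight.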

Regarding `CCOCCN(CCOCC)C1=[S][99Tc+]2(#[N])([S]1)[P](CCCOC)(CCCOC)CCN(CCOC)CC[P]2(CCCOC)CCCOC` [[^99m−Tc(N) (PNP3) (DBODC)^+]], the Heart accumulation stood at 3.57 ± 0.14 % ID/g (0 min); 3.42 ± 0.19 % ID/g (2 min); 3.65 ± 0.56 % ID/g (10 min); 3.32 ± 0.18 % ID/g (20 min); 3.27 ± 0.36 % ID/g (30 min); 3.27 ± 0.62 % ID/g (60 min). For the same molecule, the Heart accumulation (120 min) was 3.00 ± 0.42 % ID/g. The “Heart/liver ratio in biodistribution” value (0 min) stood at 2.45; the “Heart/liver ratio in biodistribution” value (2 min) stood at 1.99; the “Heart/liver ratio in biodistribution” value (10 min) amounted to 2.55; the “Heart/liver ratio in biodistribution” value (20 min) worked out at 3.82; the “Heart/liver ratio in biodistribution” value (30 min) amounted to 7.79; the “Heart/liver ratio in biodistribution” value (60 min) turned out to be 20.44. For the same molecule, the “Heart/liver ratio in biodistribution” value (120 min) amounted to 25.01. Moreover, the “Heart/lung ratio in biodistribution” value runs as follows: (0 min) 2.32; (2 min) 3.39; (10 min) 4.74; (20 min) 3.95; (30 min) 4.74; (60 min) 9.60. In addition, the “Heart/lung ratio in biodistribution” value (120 min) is recorded as 11.10.
For the molecule `COCCC[P]1(CCCOC)CCN(CCOC)CC[P](CCCOC)(CCCOC)[99Tc+]12(#[N])[S]C(N(CCOC)CCOC)=[S]2` [[^99m−Tc(N) (PNP3) (DPODC)^+]], the Heart accumulation reads like this: (0 min) 3.08 ± 0.31 % ID/g; (2 min) 2.06 ± 0.13 % ID/g; (10 min) 2.37 ± 0.33 % ID/g; (20 min) 2.49 ± 0.31 % ID/g; (30 min) 2.57 ± 0.06 % ID/g; (60 min) 2.26 ± 0.06 % ID/g. Also, the Heart accumulation (120 min) stood at 2.45 ± 0.41 % ID/g. Moreover, the “Heart/liver ratio in biodistribution” value (0 min) is listed as 0.89; the “Heart/liver ratio in biodistribution” value (2 min) is recorded as 0.56; the “Heart/liver ratio in biodistribution” value (10 min) is 0.68; the “Heart/liver ratio in biodistribution” value (20 min) is reported as 1.34; the “Heart/liver ratio in biodistribution” value (30 min) is 1.98; the “Heart/liver ratio in biodistribution” value (60 min) was found to be 5.38. Further, under “120 min”, the “Heart/liver ratio in biodistribution” value is reported as 15.31. Moreover, the “Heart/lung ratio in biodistribution” value (0 min) is 2.12; the “Heart/lung ratio in biodistribution” value (2 min) is given as 3.17; the “Heart/lung ratio in biodistribution” value (10 min) turned out to be 3.54; the “Heart/lung ratio in biodistribution” value (20 min) is recorded as 5.79; the “Heart/lung ratio in biodistribution” value (30 min) was determined as 6.27; the “Heart/lung ratio in biodistribution” value (60 min) was found to be 8.37. For the same molecule, under “120 min”, the “Heart/lung ratio in biodistribution” value came to 12.25.
As to `CCOCCN1CC[P](CCCOC)(CCCOC)[99Tc+]2(#[N])([S]C(N(CCOCC)CCOCC)=[S]2)[P](CCCOC)(CCCOC)CC1` [[^99m−Tc(N) (PNP5) (DBODC)^+]], the Heart accumulation is, setting by setting: (0 min) 5.01 ± 0.16 % ID/g; (2 min) 3.94 ± 0.32 % ID/g; (10 min) 3.69 ± 0.29 % ID/g; (20 min) 3.63 ± 0.46 % ID/g; (30 min) 3.73 ± 0.48 % ID/g; (60 min) 3.76 ± 0.39 % ID/g. Moreover, the Heart accumulation (120 min) amounted to 3.31 ± 0.06 % ID/g.
For `CCOCCN1CC[P](CCCOC)(CCCOC)[99Tc+]2(#[N])([S]C(N(CCOCC)C(C)C)=[S]2)[P](CCCOC)(CCCOC)CC1` [[^99m−Tc(N) (PNP5) (ISOET)^+]], the Heart accumulation by setting is: (0 min) 3.35 ± 0.51 % ID/g; (2 min) 2.33 ± 0.17 % ID/g; (10 min) 2.91 ± 0.36 % ID/g; (20 min) 2.86 ± 0.07 % ID/g; (30 min) 2.47 ± 0.49 % ID/g; (60 min) 2.74 ± 0.19 % ID/g. The Heart accumulation (120 min) amounted to 2.44 ± 0.05 % ID/g.
Consider `CCOCCC[P]1(CCCOCC)CCN(CCOCC)CC[P](CCCOCC)(CCCOCC)[99Tc+]12(#[N])[S]C(N(CCOCC)CCOCC)=[S]2` [[^99m−Tc(N) (PNP6) (DBODC)^+]], for which the Heart accumulation was 2.26 ± 0.82 % ID/g (0 min); 1.24 ± 0.14 % ID/g (2 min); 1.39 ± 0.30 % ID/g (10 min); 1.18 ± 0.18 % ID/g (20 min); 1.05 ± 0.19 % ID/g (30 min); 1.10 ± 0.11 % ID/g (60 min). For the same molecule, the Heart accumulation (120 min) came to 1.29 ± 0.16 % ID/g.
